Laboratory results as given in US6849645B2, “Method of increased bioavailability of nutrients and pharmaceutical preparations with tetrahydropiperine and its analogues and derivatives” (priority 2000, dated 2005).
One block for each compound: values may come before it.

Key:
Earthworms = assay: Albendazole induced anthelmintic activity on earthworms (paralysis and death); assay type: in vivo, earthworm
Protocol: An experiment to see how tetrahydropiperine enhances the skin permeability of anthelmintic drugs such as albendazole on intestinal worms was conducted. However, as a preliminary study towards this, tests on earthworms were conducted.
Earthworms were obtained from the Al Ameen College of Pharmacy, Bangalore. Albendazole (Zentel) was obtained from Smith Kline Beecham Pharmaceuticals, Bangalore. The aqueous test solution contained tetrahydropiperine (Tetraperine™, A proprietary product of Sabinsa Corporation, USA) of 0.1% and 0.2% w/v suspended in 0.25% w/v sodium carboxy methyl cellulose.
1. Effect of Albendazole: Earth worms of similar length and weight were divided into three groups of six worms each. […] The time of onset of paralysis was noted and the death of the worms were observed and recorded as above.

[1] = assay type: in vitro ADME, mouse
Protocol: The drug (100 ug/ml) was applied with 0.1% (active sample) or without (control sample) of THP in the donor compartment. Subsequently the absorbencies of the fluid in the receptor compartment for the presence of BMDP and THP were measured in time intervals of 5, 10, 15, 20, 30, 45 and 60 minutes.
Franz diffusion cell was utilized in the experiment. This is an in vitro set-up prepared from the graft of the abdominal skin of mouse to evaluate absorption of drugs and nutrients through the skin. The Franz diffusion cell contains Donor and Receptor compartments. The test drug, BMDP, with or without tetrahydropiperine (Control) was applied on one side of the skin (Donor compartment). The drug's transport to the Receptor side of the skin was estimated by UV method at pre-determined time intervals. […]
The hydrated skin was mounted on Franz diffusion cell with shaved surface facing the donor compartment. […] Absorbance of each sample was measured by UV spectrophotometer at the wavelength of 256 nm. • b. […] Absorbance of each sample was measured by UV spectrophotometer at the wavelength of 256 nm.
UV absorption Spectra of BMDP solutions show absorption at 238 nm when prepared in saline with tween 20 solution. […] Tetrahydropiperine gave absorbance at 228 nm and 275 nm. • 2. The absorbance of tetrahydropiperine was minimum at 256 nm while it was good for BMDP. […]

[2] = Franz diffusion cell, in vitro transdermal permeation of Forskolin with or without tetrahydropiperine; assay type: in vitro ADME, rat
Protocol: In vitro permeation studies of Forskholin, a diterpenoid compound which has various therapeutic effects (Bronchodilation—used in Asthma, prevents platelet aggregation, anti hypertensive, anti glaucoma and anti-inflammatory) was carried out. Fabricated Franz diffusion cells of capacity 67 and 69 ml were used for the study. Freshly excised rat abdominal skin was used for the permeation studies.
Solutions Used in the Study • a) 2.5% Forskolin in methanol. • b) 0.05% Tetrahydropiperine in 2.5% Forskolin in methanol. • c) 0.1% Tetrahydropiperine in 2.5% Forskolin in methanol. Procedure
Freshly excised rat abdominal […] was mounted on the Franz diffusion Cell, the outer layer of the skin facing the donor compartment. The receptor fluid was maintained at 35° C. using a thermostatic magnetic stirrer.
The study was conducted by replacing the medium in the receptor compartment with methanol instead of phosphate buffer. In both the receptor and donor compartment methanol was used as the medium in the permeation studies.
(§1) In the donor compartment 2 ml methanol containing 50 mg of Forskolin and tetrahydropiperine (5% of Forskolin conc.) was taken. Receptor compartment consisted of 69 ml of methanol maintained at 35° C. Permeation study was carried out for a period of 1 hr. Samples were withdrawn at 15, 30 and 60 minutes intervals and the amount of Forskholin present was analyzed by HPLC.
as §1, with “Forskholin” for “Forskolin and tetrahydropiperine (5% of Forskolin conc.)”, “65” for “69”, “hour.” for “hr.”

[3] = test system: tobacco cut worm, Spodoptera litura F.; assay: whole plant or invertebrate; conditions: Spodoptera litura, in Nicotiana tabacum, 48 h, read-out: PERCENT MORTALITY (Mean of 4 replications)
Protocol: The tetrahydropiperine was tested against tobacco cut worm, Spodoptera litura F. to determine its possible increased kill rate when used with Fenvalerate—a synthetic pyrethroid.
• a. Preparation of test solution—0.5 g of the test product was dissolved in 1 ml of Ethanol and made up to 100 ml in standard volumetric flask using suitable emulsifier. This solution contains 5000 ppm a.i. (0.5 percent). Further, serial dilution was made to get 0.25, 0.125 and 0.0625% of the test product. To each of these test solutions, Fenvalerate was added to get 250 ppm of Fenvalerate a.i. in the final volume. For comparison 0.5 percent of Tetrahydropiperine, Ethanol 1.0 percent solution and 250 ppm a.i. of Fenvalerate was used. • b. Bioassay—Laboratory reared 7 day old larvae of tobacco cut worm, Spodoptera litura were used in the experiment. After a series of preliminary tests the concentrations chosen for the experiment were 0.5, 0.25, 0.125 and 0.0625 percent tetrahydropiperine. Fresh castor leaves were dipped for 30 seconds in above concentrations of test and standard compounds and blank solutions. After proper drying, the treated leaves were transferred to plastic containers. To each container 5 larvae were released. This was repeated four times so as to have 20 larvae for each concentration. Larvae in control set were fed with leaves dipped in water. Observations were recorded for larval mortality after 48 hours of exposure. Results

SMILES: CCCSc1ccc2nc(NC(=O)OC)[nH]c2c1 [Albendazole, reference compound]
Time taken in minutes (Mean ± SEM), Paralysis (Earthworms; Albendazole 0.2% w/v alone): 99.0 ± 3.93 min | time until anthelmintic activity (Earthworms; albendazole 0.1%): > 2 h | time until anthelmintic activity (Earthworms; albendazole 0.2%): ≤ 2 h

amount of drug (BMDP) diffused in control [1]: undetectable
SMILES: CCC(=O)OCC(=O)[C@@]1(OC(=O)CC)[C@@H](C)C[C@H]2[C@@H]3CCC4=CC(=O)C=C[C@]4(C)[C@@]3(F)[C@@H](O)C[C@@]21C [BMDP, Betamethasone dipropionate]

Forskolin Release Control ([2]; Forskolin 50 mg in methanol without THP, 15 min): 1.28 | Forskolin Release Control ([2]; Forskolin without THP, 30 min): 4.05 | Forskolin Release Control ([2]; Forskolin without THP, 60 min): 8.45
SMILES: C=C[C@@]1(C)CC(=O)[C@]2(O)[C@@]3(C)[C@@H](O)CCC(C)(C)[C@@H]3[C@H](O)[C@H](OC(C)=O)[C@@]2(C)O1 [Forskolin, reference compound]

SMILES: CC(C)C(C(=O)OC(C#N)c1cccc(Oc2ccccc2)c1)c1ccc(Cl)cc1 (centres unmarked) [Fenvalerate, reference compound]
mortality at 250 ppm [3]: 55%
